Test system: mongrel dogs
Experiment: circulatory pharmacological effectiveness on narcotised dogs, intravenous
Type: in vivo, dog
Settings: dog i.v. ISDN/9c 1, 1d 0.5 mg/kg

Cn1c(=O)c2c(ncn2CCCN[C@H]2CO[C@H]3[C@@H]2OC[C@@H]3O[N+](=O)[O-])n(C)c1=O [Example 1d, 5-(3-Theophyllin-7-ylpropyl)-amino-5-desoxy-1.4;3.6-dianhydro-L-iditol 2-nitrate]
APdiast: diastolic aorta pressure (2 min): 67.5 mm.Hg
APsyst: systolic aorta pressure (2 min): 107.8 mm.Hg
BFFem: blood flow in the A. femoralis referred to 20 kg body weight (2 min): 42.6 mL/min
HF: heart frequency (2 min): 145.7
HLL: heart capacity left, referred to 20 kg body weight (2 min): 0.51 W
HLR: heart capacity right, referred to 20 kg body weight (2 min): 70.9 mW
HZV: heart minute volume, referred to 20 kg body weight (2 min): 2.94 L/min
LVEDP: end diastolic pressure in the left ventricle (2 min): 3.85 mm.Hg
SV: beat volume, referred to 20 kg body weight (2 min): 21.9 mL
WAP: pulmonalis resistance, referred to 20 kg body weight (2 min): 0.35 U
WFem: moralis resistance, referred to 20 kg body weight (2 min): 0.28 KU
WTP: total peripheral resistance, referred to 20 kg body weight (2 min): 3.73 U
dp/dt: rate of pressure increase in the left ventricle (2 min): 2915.6 mm.Hg/sec
APdiast: diastolic aorta pressure (5 min): 77.8 mm.Hg
APsyst: systolic aorta pressure (5 min): 119.4 mm.Hg
BFFem: blood flow in the A. femoralis referred to 20 kg body weight (5 min): 40.8 mL/min
HF: heart frequency (5 min): 131.2
HLL: heart capacity left, referred to 20 kg body weight (5 min): 0.47 W
HLR: heart capacity right, referred to 20 kg body weight (5 min): 58.2 mW
HZV: heart minute volume, referred to 20 kg body weight (5 min): 2.40 L/min
LVEDP: end diastolic pressure in the left ventricle (5 min): 4.78 mm.Hg
SV: beat volume, referred to 20 kg body weight (5 min): 19.6 mL
WAP: pulmonalis resistance, referred to 20 kg body weight (5 min): 0.38 U
WFem: moralis resistance, referred to 20 kg body weight (5 min): 0.32 KU
WTP: total peripheral resistance, referred to 20 kg body weight (5 min): 5.16 U
dp/dt: rate of pressure increase in the left ventricle (5 min): 2671.9 mm.Hg/sec
APdiast: diastolic aorta pressure (7 min): 75.9 mm.Hg
APsyst: systolic aorta pressure (7 min): 122.8 mm.Hg
BFFem: blood flow in the A. femoralis referred to 20 kg body weight (7 min): 42.7 mL/min
HF: heart frequency (7 min): 119.5
HLL: heart capacity left, referred to 20 kg body weight (7 min): 0.47 W
HLR: heart capacity right, referred to 20 kg body weight (7 min): 56.8 mW
HZV: heart minute volume, referred to 20 kg body weight (7 min): 2.40 L/min
LVEDP: end diastolic pressure in the left ventricle (7 min): 5.16 mm.Hg
SV: beat volume, referred to 20 kg body weight (7 min): 21.3 mL
WAP: pulmonalis resistance, referred to 20 kg body weight (7 min): 0.37 U
WFem: moralis resistance, referred to 20 kg body weight (7 min): 0.30 KU
WTP: total peripheral resistance, referred to 20 kg body weight (7 min): 5.10 U
dp/dt: rate of pressure increase in the left ventricle (7 min): 2662.5 mm.Hg/sec
APdiast: diastolic aorta pressure (10 min): 74.6 mm.Hg
APsyst: systolic aorta pressure (10 min): 124.7 mm.Hg
BFFem: blood flow in the A. femoralis referred to 20 kg body weight (10 min): 46.2 mL/min
HF: heart frequency (10 min): 110.2
HLL: heart capacity left, referred to 20 kg body weight (10 min): 0.47 W
HLR: heart capacity right, referred to 20 kg body weight (10 min): 57.1 mW
HZV: heart minute volume, referred to 20 kg body weight (10 min): 2.38 L/min
LVEDP: end diastolic pressure in the left ventricle (10 min): 4.69 mm.Hg
SV: beat volume, referred to 20 kg body weight (10 min): 22.9 mL
WAP: pulmonalis resistance, referred to 20 kg body weight (10 min): 0.41 U
WFem: moralis resistance, referred to 20 kg body weight (10 min): 0.28 KU
WTP: total peripheral resistance, referred to 20 kg body weight (10 min): 5.10 U
dp/dt: rate of pressure increase in the left ventricle (10 min): 2465.6 mm.Hg/sec
APdiast: diastolic aorta pressure (15 min): 75.9 mm.Hg
APsyst: systolic aorta pressure (15 min): 126.0 mm.Hg
BFFem: blood flow in the A. femoralis referred to 20 kg body weight (15 min): 48.3 mL/min
HF: heart frequency (15 min): 107.7
HLL: heart capacity left, referred to 20 kg body weight (15 min): 0.44 W
HLR: heart capacity right, referred to 20 kg body weight (15 min): 53.8 mW
HZV: heart minute volume, referred to 20 kg body weight (15 min): 2.26 L/min
SV: beat volume, referred to 20 kg body weight (15 min): 22.0 mL
WAP: pulmonalis resistance, referred to 20 kg body weight (15 min): 0.43 U
WFem: moralis resistance, referred to 20 kg body weight (15 min): 0.28 KU
WTP: total peripheral resistance, referred to 20 kg body weight (15 min): 5.51 U
dp/dt: rate of pressure increase in the left ventricle (15 min): 2465.6 mm.Hg/sec
APdiast: diastolic aorta pressure (20 min): 78.7 mm.Hg
APsyst: systolic aorta pressure (20 min): 127.9 mm.Hg
BFFem: blood flow in the A. femoralis referred to 20 kg body weight (20 min): 51.5 mL/min
HF: heart frequency (20 min): 104.0
HLL: heart capacity left, referred to 20 kg body weight (20 min): 0.45 W
HLR: heart capacity right, referred to 20 kg body weight (20 min): 52.8 mW
HZV: heart minute volume, referred to 20 kg body weight (20 min): 2.24 L/min
LVEDP: end diastolic pressure in the left ventricle (20 min): 5.62 mm.Hg
SV: beat volume, referred to 20 kg body weight (20 min): 22.3 mL
WAP: pulmonalis resistance, referred to 20 kg body weight (20 min): 0.41 U
WFem: moralis resistance, referred to 20 kg body weight (20 min): 0.27 KU
WTP: total peripheral resistance, referred to 20 kg body weight (20 min): 5.71 U
dp/dt: rate of pressure increase in the left ventricle (20 min): 2428.1 mm.Hg/sec
APdiast: diastolic aorta pressure (25 min): 79.7 mm.Hg
APsyst: systolic aorta pressure (25 min): 127.5 mm.Hg
BFFem: blood flow in the A. femoralis referred to 20 kg body weight (25 min): 52.9 mL/min
HLL: heart capacity left, referred to 20 kg body weight (25 min): 0.45 W
HLR: heart capacity right, referred to 20 kg body weight (25 min): 50.9 mW
HZV: heart minute volume, referred to 20 kg body weight (25 min): 2.24 L/min
LVEDP: end diastolic pressure in the left ventricle (25 min): 5.44 mm.Hg
SV: beat volume, referred to 20 kg body weight (25 min): 22.3 mL
WAP: pulmonalis resistance, referred to 20 kg body weight (25 min): 0.44 U
WFem: moralis resistance, referred to 20 kg body weight (25 min): 0.27 KU
WTP: total peripheral resistance, referred to 20 kg body weight (25 min): 5.78 U
dp/dt: rate of pressure increase in the left ventricle (25 min): 2353.1 mm.Hg/sec
APdiast: diastolic aorta pressure (30 min): 81.6 mm.Hg
APsyst: systolic aorta pressure (30 min): 130.9 mm.Hg
BFFem: blood flow in the A. femoralis referred to 20 kg body weight (30 min): 54.1 mL/min
HF: heart frequency (30 min): 101.2
HLL: heart capacity left, referred to 20 kg body weight (30 min): 0.45 W
HLR: heart capacity right, referred to 20 kg body weight (30 min): 50.5 mW
HZV: heart minute volume, referred to 20 kg body weight (30 min): 2.18 L/min
LVEDP: end diastolic pressure in the left ventricle (30 min): 5.72 mm.Hg
SV: beat volume, referred to 20 kg body weight (30 min): 22.1 mL
WAP: pulmonalis resistance, referred to 20 kg body weight (30 min): 0.45 U
WFem: moralis resistance, referred to 20 kg body weight (30 min): 0.26 KU
WTP: total peripheral resistance, referred to 20 kg body weight (30 min): 6.10 U
APdiast: diastolic aorta pressure (40 min): 83.4 mm.Hg
APsyst: systolic aorta pressure (40 min): 133.1 mm.Hg

Source: patent publication US4542137A, “Alkylaminodesoxy-1.4;3.6-dianhydrohexitol nitrates substituted by purine bases and pharmaceutical compositions” (priority 1980, dated 1985)
